{"source": "the supplement of paper PMC10307832", "assay_in_all_cases": "relative viability (nuclei count vs DMSO), 5 days (fraction); higher = more cells survive", "key": {"[1]": {"test_system": "NCI-H1975", "summary_of_the_method": "(§1)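 Five library-drug doses in √10 steps were combined with a fixed anchor-drug dose, or a single drug was given alone, by pin tool to lung cancer cell lines in 1536-well plates the day after seeding. Nuclei were stained and counted after 5 days. Relative viability is the nuclei count in treated wells over that in vehicle wells, taken as the median of duplicate plates.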"}, "[2]": {"test_system": "EPLC-272H", "summary_of_the_method": "as §1"}, "[3]": {"test_system": "NCI-H2126", "summary_of_the_method": "as §1"}, "[4]": {"test_system": "NCI-H1755", "summary_of_the_method": "as §1"}, "[5]": {"test_system": "HCC-78", "summary_of_the_method": "as §1"}, "[6]": {"test_system": "ChaGo-K-1", "summary_of_the_method": "as §1"}, "[7]": {"test_system": "NCI-H358", "summary_of_the_method": "as §1"}, "[8]": {"test_system": "NCI-H2023", "summary_of_the_method": "as §1"}, "[9]": {"test_system": "HCC-15", "summary_of_the_method": "as §1"}, "[10]": {"test_system": "HOP-62", "summary_of_the_method": "as §1"}, "[11]": {"test_system": "NCI-H3122", "summary_of_the_method": "as §1"}, "[12]": {"test_system": "UMC-11", "summary_of_the_method": "as §1"}, "[13]": {"test_system": "LXF-289", "summary_of_the_method": "as §1"}, "[14]": {"test_system": "EMC-BAC-2", "summary_of_the_method": "as §1"}, "[15]": {"test_system": "COR-L 105", "summary_of_the_method": "as §1"}, "[16]": {"test_system": "NCI-H322M", "summary_of_the_method": "as §1"}, "[17]": {"test_system": "NCI-H1915", "summary_of_the_method": "as §1"}, "[18]": {"test_system": "NCI-H2085", "summary_of_the_method": "as §1"}, "[19]": {"test_system": "NCI-H441", "summary_of_the_method": "as §1"}, "[20]": {"test_system": "NCI-H1666", "summary_of_the_method": "as §1"}, "[21]": {"test_system": "CAL-12T", "summary_of_the_method": "as §1"}}, "data": [{"smiles": "Nc1ccn([C@@H]2O[C@H](CO)[C@@H](O)[C@@H]2O)c(=O)n1", "note": "[Cytarabine] + Nc1nc2[nH]cc(CCc3ccc(C(=O)N[C@@H](CCC(=O)O)C(=O)O)cc3)c2c(=O)[nH]1 [Pemetrexed] (partner 0.2 µM)", "values": [{"measurement": "relative viability", "setting": "[1]; first compound 0.005 µM", "value": 0.255}, {"measurement": "relative viability", "setting": "[1]; first compound 0.01581 µM", "value": 0.287}, {"measurement": "relative viability", "setting": "[1]; first compound 0.05 µM", "value": 0.297}, {"measurement": "relative viability", "setting": "[1]; first compound 0.1581 µM", "value": 0.28}, {"measurement": "relative viability", "setting": "[1]; first compound 0.5 µM", "value": 0.266}, {"measurement": "relative viability", "setting": "[2]; first compound 0.005 µM", "value": 0.232}, {"measurement": "relative viability", "setting": "[2]; first compound 0.01581 µM", "value": 0.338}, {"measurement": "relative viability", "setting": "[2]; first compound 0.05 µM", "value": 0.289}, {"measurement": "relative viability", "setting": "[2]; first compound 0.1581 µM", "value": 0.27}, {"measurement": "relative viability", "setting": "[2]; first compound 0.5 µM", "value": 0.222}, {"measurement": "relative viability", "setting": "[3]; first compound 0.005 µM", "value": 0.76}, {"measurement": "relative viability", "setting": "[3]; first compound 0.01581 µM", "value": 0.775}, {"measurement": "relative viability", "setting": "[3]; first compound 0.05 µM", "value": 0.525}, {"measurement": "relative viability", "setting": "[3]; first compound 0.1581 µM", "value": 0.549}, {"measurement": "relative viability", "setting": "[3]; first compound 0.5 µM", "value": 0.46}, {"measurement": "relative viability", "setting": "[4]; first compound 0.005 µM", "value": 0.472}, {"measurement": "relative viability", "setting": "[4]; first compound 0.01581 µM", "value": 0.453}, {"measurement": "relative viability", "setting": "[4]; first compound 0.05 µM", "value": 0.381}, {"measurement": "relative viability", "setting": "[4]; first compound 0.1581 µM", "value": 0.336}, {"measurement": "relative viability", "setting": "[4]; first compound 0.5 µM", "value": 0.351}, {"measurement": "relative viability", "setting": "[5]; first compound 0.005 µM", "value": 0.824}, {"measurement": "relative viability", "setting": "[5]; first compound 0.01581 µM", "value": 0.918}, {"measurement": "relative viability", "setting": "[5]; first compound 0.05 µM", "value": 0.889}, {"measurement": "relative viability", "setting": "[5]; first compound 0.1581 µM", "value": 0.936}, {"measurement": "relative viability", "setting": "[5]; first compound 0.5 µM", "value": 0.894}, {"measurement": "relative viability", "setting": "[6]; first compound 0.005 µM", "value": 0.264}, {"measurement": "relative viability", "setting": "[6]; first compound 0.01581 µM", "value": 0.249}, {"measurement": "relative viability", "setting": "[6]; first compound 0.05 µM", "value": 0.239}, {"measurement": "relative viability", "setting": "[6]; first compound 0.1581 µM", "value": 0.209}, {"measurement": "relative viability", "setting": "[6]; first compound 0.5 µM", "value": 0.192}, {"measurement": "relative viability", "setting": "[7]; first compound 0.005 µM", "value": 0.195}, {"measurement": "relative viability", "setting": "[7]; first compound 0.01581 µM", "value": 0.188}, {"measurement": "relative viability", "setting": "[7]; first compound 0.05 µM", "value": 0.185}, {"measurement": "relative viability", "setting": "[7]; first compound 0.1581 µM", "value": 0.168}, {"measurement": "relative viability", "setting": "[7]; first compound 0.5 µM", "value": 0.116}, {"measurement": "relative viability", "setting": "[8]; first compound 0.005 µM", "value": 0.193}, {"measurement": "relative viability", "setting": "[8]; first compound 0.01581 µM", "value": 0.126}, {"measurement": "relative viability", "setting": "[8]; first compound 0.05 µM", "value": 0.105}, {"measurement": "relative viability", "setting": "[8]; first compound 0.1581 µM", "value": 0.0804}, {"measurement": "relative viability", "setting": "[8]; first compound 0.5 µM", "value": 0.0895}, {"measurement": "relative viability", "setting": "[9]; first compound 0.005 µM", "value": 0.249}, {"measurement": "relative viability", "setting": "[9]; first compound 0.01581 µM", "value": 0.215}, {"measurement": "relative viability", "setting": "[9]; first compound 0.05 µM", "value": 0.226}, {"measurement": "relative viability", "setting": "[9]; first compound 0.1581 µM", "value": 0.225}, {"measurement": "relative viability", "setting": "[9]; first compound 0.5 µM", "value": 0.222}, {"measurement": "relative viability", "setting": "[10]; first compound 0.005 µM", "value": 0.388}, {"measurement": "relative viability", "setting": "[10]; first compound 0.01581 µM", "value": 0.411}, {"measurement": "relative viability", "setting": "[10]; first compound 0.05 µM", "value": 0.309}, {"measurement": "relative viability", "setting": "[10]; first compound 0.1581 µM", "value": 0.113}, {"measurement": "relative viability", "setting": "[10]; first compound 0.5 µM", "value": 0.072}, {"measurement": "relative viability", "setting": "[11]; first compound 0.005 µM", "value": 0.207}, {"measurement": "relative viability", "setting": "[11]; first compound 0.01581 µM", "value": 0.196}, {"measurement": "relative viability", "setting": "[11]; first compound 0.05 µM", "value": 0.227}, {"measurement": "relative viability", "setting": "[11]; first compound 0.1581 µM", "value": 0.381}, {"measurement": "relative viability", "setting": "[11]; first compound 0.5 µM", "value": 0.156}, {"measurement": "relative viability", "setting": "[12]; first compound 0.005 µM", "value": 0.551}, {"measurement": "relative viability", "setting": "[12]; first compound 0.01581 µM", "value": 0.491}, {"measurement": "relative viability", "setting": "[12]; first compound 0.05 µM", "value": 0.428}, {"measurement": "relative viability", "setting": "[12]; first compound 0.1581 µM", "value": 0.226}, {"measurement": "relative viability", "setting": "[12]; first compound 0.5 µM", "value": 0.195}, {"measurement": "relative viability", "setting": "[13]; first compound 0.005 µM", "value": 0.729}, {"measurement": "relative viability", "setting": "[13]; first compound 0.01581 µM", "value": 0.864}, {"measurement": "relative viability", "setting": "[13]; first compound 0.05 µM", "value": 0.808}, {"measurement": "relative viability", "setting": "[13]; first compound 0.1581 µM", "value": 0.36}, {"measurement": "relative viability", "setting": "[13]; first compound 0.5 µM", "value": 0.268}, {"measurement": "relative viability", "setting": "[14]; first compound 0.005 µM", "value": 0.476}, {"measurement": "relative viability", "setting": "[14]; first compound 0.01581 µM", "value": 0.446}, {"measurement": "relative viability", "setting": "[14]; first compound 0.05 µM", "value": 0.31}, {"measurement": "relative viability", "setting": "[14]; first compound 0.1581 µM", "value": 0.244}, {"measurement": "relative viability", "setting": "[14]; first compound 0.5 µM", "value": 0.247}, {"measurement": "relative viability", "setting": "[15]; first compound 0.005 µM", "value": 0.961}, {"measurement": "relative viability", "setting": "[15]; first compound 0.01581 µM", "value": 1.19}, {"measurement": "relative viability", "setting": "[15]; first compound 0.05 µM", "value": 0.678}, {"measurement": "relative viability", "setting": "[15]; first compound 0.1581 µM", "value": 0.579}, {"measurement": "relative viability", "setting": "[15]; first compound 0.5 µM", "value": 0.383}, {"measurement": "relative viability", "setting": "[16]; first compound 0.005 µM", "value": 0.609}, {"measurement": "relative viability", "setting": "[16]; first compound 0.01581 µM", "value": 0.628}, {"measurement": "relative viability", "setting": "[16]; first compound 0.05 µM", "value": 0.572}, {"measurement": "relative viability", "setting": "[16]; first compound 0.1581 µM", "value": 0.408}, {"measurement": "relative viability", "setting": "[16]; first compound 0.5 µM", "value": 0.384}, {"measurement": "relative viability", "setting": "[17]; first compound 0.005 µM", "value": 0.506}, {"measurement": "relative viability", "setting": "[17]; first compound 0.01581 µM", "value": 0.563}, {"measurement": "relative viability", "setting": "[17]; first compound 0.05 µM", "value": 0.54}, {"measurement": "relative viability", "setting": "[17]; first compound 0.1581 µM", "value": 0.45}, {"measurement": "relative viability", "setting": "[17]; first compound 0.5 µM", "value": 0.333}, {"measurement": "relative viability", "setting": "[18]; first compound 0.005 µM", "value": 0.788}, {"measurement": "relative viability", "setting": "[18]; first compound 0.01581 µM", "value": 0.921}, {"measurement": "relative viability", "setting": "[18]; first compound 0.05 µM", "value": 0.906}, {"measurement": "relative viability", "setting": "[18]; first compound 0.1581 µM", "value": 0.703}, {"measurement": "relative viability", "setting": "[18]; first compound 0.5 µM", "value": 0.547}, {"measurement": "relative viability", "setting": "[19]; first compound 0.005 µM", "value": 0.273}, {"measurement": "relative viability", "setting": "[19]; first compound 0.01581 µM", "value": 0.251}, {"measurement": "relative viability", "setting": "[19]; first compound 0.05 µM", "value": 0.331}, {"measurement": "relative viability", "setting": "[19]; first compound 0.1581 µM", "value": 0.226}, {"measurement": "relative viability", "setting": "[19]; first compound 0.5 µM", "value": 0.144}, {"measurement": "relative viability", "setting": "[20]; first compound 0.005 µM", "value": 0.761}, {"measurement": "relative viability", "setting": "[20]; first compound 0.01581 µM", "value": 0.718}, {"measurement": "relative viability", "setting": "[20]; first compound 0.05 µM", "value": 0.754}, {"measurement": "relative viability", "setting": "[20]; first compound 0.1581 µM", "value": 0.655}, {"measurement": "relative viability", "setting": "[20]; first compound 0.5 µM", "value": 0.616}, {"measurement": "relative viability", "setting": "[21]; first compound 0.005 µM", "value": 0.928}, {"measurement": "relative viability", "setting": "[21]; first compound 0.01581 µM", "value": 1.11}, {"measurement": "relative viability", "setting": "[21]; first compound 0.05 µM", "value": 0.984}, {"measurement": "relative viability", "setting": "[21]; first compound 0.1581 µM", "value": 0.543}, {"measurement": "relative viability", "setting": "[21]; first compound 0.5 µM", "value": 0.249}]}]}
